In brackets after ≈: the same amount, converted by molar mass.
Legend:
[1] = test system: Staphylococcus aureus SA1199B; assay type: cell-based
Method: (§1) The MIC's were determined using a standard broth micro-dilution assay.

[2] = test system: Entercoccus faecium 180-1; test: broth micro-dilution MIC; assay type: cell-based
Method: as §1

Entercoccus faecium 276 = test: broth micro-dilution MIC; assay type: cell-based
Method: as §1

[3] = test system: Staphylococcus aureus 446; test: broth micro-dilution MIC; assay type: cell-based
Method: as §1

[4] = test system: Staphylococcus aureus 447; test: broth micro-dilution MIC; assay type: cell-based
Method: as §1

[5] = test system: Staphylococcus aureus 489; test: broth micro-dilution MIC; assay type: cell-based
Method: as §1

[6] = test system: Staphylococcus aureus SA1199A; test: broth micro-dilution MIC; assay type: cell-based
Method: as §1

[7] = test system: Staphylococcus aureus X400; test: broth micro-dilution MIC; assay type: cell-based
Method: as §1

Entercoccus faecium 180 = test: broth micro-dilution MIC; assay type: cell-based; conditions: Entercoccus faecium 180
Method: (§2) The formula I compounds have in vitro and in vivo activity against Gram-positive pathogenic bacteria. The MIC's were determined using a standard broth micro-dilution assay.

[8] = test system: Enterococcus gallinarum 245; test: broth micro-dilution MIC; assay type: cell-based; conditions: Enterococcus gallinarum 245
Method: as §2

[9] = test system: Staphylococcus epidermidis 270; test: broth micro-dilution MIC; assay type: cell-based
Method: as §2

[10] = test system: Staphylococcus haemolyticus 415; test: broth micro-dilution MIC; assay type: cell-based
Method: as §2

[11] = test system: Streptococcus pneumoniae P1; test: broth micro-dilution MIC; assay type: cell-based
Method: as §2

[12] = test system: vancomycin-resistant enterococci; test: broth micro-dilution, mean geometric MIC; assay type: cell-based, Enterococcus faecium and Enterococcus faecalis; conditions: enterococci, 24-hour incubation
[13] = test system: vancomycin-susceptible enterococci; test: broth micro-dilution, mean geometric MIC; assay type: cell-based, Enterococcus faecium and Enterococcus faecalis; conditions: enterococci, 24-hour incubation
[14] = test system: Staphylococcus aureus S13E; assay type: cell-based
Method: as §1

[15] = test system: Staphylococcus aureus SA1199; test: broth micro-dilution MIC; assay type: cell-based
Method: as §1

Entercoccus faecium 2041 = test: broth micro-dilution MIC; assay type: cell-based; conditions: Entercoccus faecium 2041
Method: as §2

[16] = test system: Staphylococcus haemolyticus 105; test: broth micro-dilution MIC; assay type: cell-based
Method: as §2

[17] = test system: Staphylococcus aureus X778; test: broth micro-dilution MIC; assay type: cell-based
Method: as §1

[18] = test system: Streptococcus pyogenes C203; test: broth micro-dilution MIC; assay type: cell-based
Method: as §1

Structure (SMILES)	MIC [1]	MIC [2]	MIC (Entercoccus faecium 276)	MIC [3]	MIC [4]	MIC [5]	MIC [6]	MIC [7]	MIC (Entercoccus faecium 180)	MIC [8]	MIC [9]	MIC [10]	MIC [11]	mean geometric MIC, Vancomycin Resistant Strains [12]	mean geometric MIC, Vancomycin Sensitive Strains [13]	MIC [14]	MIC (Entercoccus faecium 2041)	MIC [16]	MIC [17]	MIC [18]	further results
CCOc1ccc2ccccc2c1CNC1(C)CC(OC2C(Oc3c4cc5cc3Oc3ccc(cc3Cl)C(OC3CC(C)(N)C(O)C(C)O3)C3NC(=O)C(NC(=O)C5NC(=O)C(CC(N)=O)NC(=O)C(NC(=O)C(CC(C)C)NC)C(O)c5ccc(c(Cl)c5)O4)c4ccc(O)c(c4)-c4c(O)cc(O)cc4C(C(=O)O)NC3=O)OC(CO)C(O)C2O)OC(C)C1O (stereo not drawn) [Compound 60]	0.5 µg/mL (≈ 0.281 µM)	≤ 0.06 µg/mL	0.5 µg/mL (≈ 0.281 µM)	1 µg/mL (≈ 0.563 µM)	2 µg/mL (≈ 1.13 µM)	0.5 µg/mL (≈ 0.281 µM)	≤ 0.06 µg/mL	0.5 µg/mL (≈ 0.281 µM)	4 µg/mL (≈ 2.25 µM)	16 µg/mL (≈ 9.01 µM)	2 µg/mL (≈ 1.13 µM)	16 µg/mL (≈ 9.01 µM)	≤ 0.06 µg/mL	19 µg/mL	3.0 µg/mL						
CNC(CC(C)C)C(=O)NC1C(=O)NC(CC(N)=O)C(=O)NC2C(=O)NC3C(=O)NC(C(=O)NC(C(=O)O)c4cc(O)cc(O)c4-c4cc3ccc4O)C(OC3CC(C)(N)C(O)C(C)O3)c3ccc(c(Cl)c3)Oc3cc2cc(c3OC2OC(CO)C(O)C(O)C2OC2CC(C)(NCC3CCC(COCc4ccccc4)CC3)C(O)C(C)O2)Oc2ccc(cc2Cl)C1O (stereo not drawn) [Compound 239]	0.5 µg/mL (≈ 0.276 µM)	≤ 0.06 µg/mL		1 µg/mL (≈ 0.553 µM)	0.5 µg/mL (≈ 0.276 µM)	0.5 µg/mL (≈ 0.276 µM)	≤ 0.06 µg/mL		≤ 0.06 µg/mL	1 µg/mL (≈ 0.553 µM)		1 µg/mL (≈ 0.553 µM)	≤ 0.06 µg/mL	2.8 µg/mL	0.095 µg/mL	0.5 µg/mL (≈ 0.276 µM)	≤ 0.06 µg/mL	1 µg/mL (≈ 0.553 µM)			MIC [15]: 0.5 µg/mL (≈ 0.276 µM)
CNC(CC(C)C)C(=O)NC1C(=O)NC(CC(N)=O)C(=O)NC2C(=O)NC3C(=O)NC(C(=O)NC(C(=O)O)c4cc(O)cc(O)c4-c4cc3ccc4O)C(OC3CC(C)(N)C(O)C(C)O3)c3ccc(c(Cl)c3)Oc3cc2cc(c3OC2OC(CO)C(O)C(O)C2OC2CC(C)(NCc3ccc(Cl)c(C(=O)c4ccccc4)c3Cl)C(O)C(C)O2)Oc2ccc(cc2Cl)C1O (stereo not drawn) [Compound 133]	2 µg/mL (≈ 1.08 µM)	≤ 0.06 µg/mL	1 µg/mL (≈ 0.539 µM)	2 µg/mL (≈ 1.08 µM)	1 µg/mL (≈ 0.539 µM)	1 µg/mL (≈ 0.539 µM)		0.5 µg/mL (≈ 0.269 µM)	1 µg/mL (≈ 0.539 µM)	2 µg/mL (≈ 1.08 µM)	1 µg/mL (≈ 0.539 µM)	2 µg/mL (≈ 1.08 µM)	≤ 0.06 µg/mL	4.0 µg/mL	0.13 µg/mL	1 µg/mL (≈ 0.539 µM)		2 µg/mL (≈ 1.08 µM)	2 µg/mL (≈ 1.08 µM)	≤ 0.06 µg/mL	
CNC(CC(C)C)C(=O)NC1C(=O)NC(CC(N)=O)C(=O)NC2C(=O)NC3C(=O)NC(C(=O)NC(C(=O)O)c4cc(O)cc(O)c4-c4cc3ccc4O)C(OC3CC(C)(N)C(O)C(C)O3)c3ccc(c(Cl)c3)Oc3cc2cc(c3OC2OC(CO)C(O)C(O)C2OC2CC(C)(NCC3=CCC(C(C)C)CC3)C(O)C(C)O2)Oc2ccc(cc2Cl)C1O (stereo not drawn) [Compound 171]		≤ 0.06 µg/mL	0.125 µg/mL (≈ 0.0723 µM)	1 µg/mL (≈ 0.578 µM)	1 µg/mL (≈ 0.578 µM)	0.5 µg/mL (≈ 0.289 µM)	≤ 0.06 µg/mL	≤ 0.06 µg/mL	1 µg/mL (≈ 0.578 µM)	8 µg/mL (≈ 4.63 µM)	1 µg/mL (≈ 0.578 µM)	8 µg/mL (≈ 4.63 µM)	≤ 0.06 µg/mL	9.5 µg/mL	0.22 µg/mL	≤ 0.06 µg/mL	≤ 0.06 µg/mL	4 µg/mL (≈ 2.31 µM)	≤ 0.06 µg/mL	≤ 0.06 µg/mL	
CNC(CC(C)C)C(=O)NC1C(=O)NC(CC(N)=O)C(=O)NC2C(=O)NC3C(=O)NC(C(=O)NC(C(=O)O)c4cc(O)cc(O)c4-c4cc3ccc4O)C(OC3CC(C)(N)C(O)C(C)O3)c3ccc(c(Cl)c3)Oc3cc2cc(c3OC2OC(CO)C(O)C(O)C2OC2CC(C)(NCc3ccc(C)c(C)c3)C(O)C(C)O2)Oc2ccc(cc2Cl)C1O (stereo not drawn) [Compound 76]		≤ 0.06 µg/mL	≤ 0.06 µg/mL		0.5 µg/mL (≈ 0.292 µM)	≤ 0.06 µg/mL			0.5 µg/mL (≈ 0.292 µM)	4 µg/mL (≈ 2.34 µM)		4 µg/mL (≈ 2.34 µM)	≤ 0.06 µg/mL	8.0 µg/mL			≤ 0.06 µg/mL	2 µg/mL (≈ 1.17 µM)		≤ 0.06 µg/mL	MIC [15]: ≤ 0.06 µg/mL
CNC(CC(C)C)C(=O)NC1C(=O)NC(CC(N)=O)C(=O)NC2C(=O)NC3C(=O)NC(C(=O)NC(C(=O)O)c4cc(O)cc(O)c4-c4cc3ccc4O)C(OC3CC(C)(N)C(O)C(C)O3)c3ccc(c(Cl)c3)Oc3cc2cc(c3OC2OC(CO)C(O)C(O)C2OC2CC(C)(NCCc3ccc(Oc4ccccc4)cc3)C(O)C(C)O2)Oc2ccc(cc2Cl)C1O (stereo not drawn) [Compound 33]		≤ 0.06 µg/mL	≤ 0.06 µg/mL	4 µg/mL (≈ 2.24 µM)		≤ 0.06 µg/mL	≤ 0.06 µg/mL		2 µg/mL (≈ 1.12 µM)		2 µg/mL (≈ 1.12 µM)	8 µg/mL (≈ 4.47 µM)		2.8 µg/mL	0.18 µg/mL	≤ 0.06 µg/mL	≤ 0.06 µg/mL	2 µg/mL (≈ 1.12 µM)	0.5 µg/mL (≈ 0.28 µM)		MIC [15]: 1 µg/mL (≈ 0.559 µM)
CNC(CC(C)C)C(=O)NC1C(=O)NC(CC(N)=O)C(=O)NC2C(=O)NC3C(=O)NC(C(=O)NC(C(=O)O)c4cc(O)cc(O)c4-c4cc3ccc4O)C(OC3CC(C)(N)C(O)C(C)O3)c3ccc(c(Cl)c3)Oc3cc2cc(c3OC2OC(CO)C(O)C(O)C2OC2CC(C)(NCc3ccc(Nc4ccccc4)cc3)C(O)C(C)O2)Oc2ccc(cc2Cl)C1O (stereo not drawn) [Compound 160]	≤ 0.06 µg/mL	≤ 0.06 µg/mL	2 µg/mL (≈ 1.13 µM)	2 µg/mL (≈ 1.13 µM)	1 µg/mL (≈ 0.564 µM)	0.21 µg/mL (≈ 0.118 µM)		4 µg/mL (≈ 2.26 µM)	0.5 µg/mL (≈ 0.282 µM)	8 µg/mL (≈ 4.51 µM)	1 µg/mL (≈ 0.564 µM)	8 µg/mL (≈ 4.51 µM)	≤ 0.06 µg/mL	9.5 µg/mL	0.22 µg/mL	1 µg/mL (≈ 0.564 µM)	≤ 0.06 µg/mL	8 µg/mL (≈ 4.51 µM)	4 µg/mL (≈ 2.26 µM)	≤ 0.06 µg/mL	
CNC(CC(C)C)C(=O)NC1C(=O)NC(CC(N)=O)C(=O)NC2C(=O)NC3C(=O)NC(C(=O)NC(C(=O)O)c4cc(O)cc(O)c4-c4cc3ccc4O)C(OC3CC(C)(N)C(O)C(C)O3)c3ccc(c(Cl)c3)Oc3cc2cc(c3OC2OC(CO)C(O)C(O)C2OC2CC(C)(NCCc3ccc(Oc4ccccc4)cc3)C(O)C(C)O2)Oc2ccc(cc2Cl)C1O (stereo not drawn) [Compound 63]	0.5 µg/mL (≈ 0.28 µM)	≤ 0.06 µg/mL	0.5 µg/mL (≈ 0.28 µM)	0.5 µg/mL (≈ 0.28 µM)	1 µg/mL (≈ 0.559 µM)	8 µg/mL (≈ 4.47 µM)		≤ 0.06 µg/mL		8 µg/mL (≈ 4.47 µM)	1 µg/mL (≈ 0.559 µM)	8 µg/mL (≈ 4.47 µM)	≤ 0.06 µg/mL	54 µg/mL	0.66 µg/mL			4 µg/mL (≈ 2.24 µM)		≤ 0.06 µg/mL	
CNC(CC(C)C)C(=O)NC1C(=O)NC(CC(N)=O)C(=O)NC2C(=O)NC3C(=O)NC(C(=O)NC(C(=O)O)c4cc(O)cc(O)c4-c4cc3ccc4O)C(OC3CC(C)(N)C(O)C(C)O3)c3ccc(c(Cl)c3)Oc3cc2cc(c3OC2OC(CO)C(O)C(O)C2OC2CC(C)(NCc3ccc(Oc4ccc(Cl)cc4)cc3)C(O)C(C)O2)Oc2ccc(cc2Cl)C1O (stereo not drawn) [Compound 240]		≤ 0.06 µg/mL	0.5 µg/mL (≈ 0.276 µM)	1 µg/mL (≈ 0.553 µM)	0.5 µg/mL (≈ 0.276 µM)	1 µg/mL (≈ 0.553 µM)	≤ 0.06 µg/mL		≤ 0.06 µg/mL	2 µg/mL (≈ 1.11 µM)		2 µg/mL (≈ 1.11 µM)	≤ 0.06 µg/mL	1.19 µg/mL	0.055 µg/mL	0.5 µg/mL (≈ 0.276 µM)	≤ 0.06 µg/mL	1 µg/mL (≈ 0.553 µM)	0.5 µg/mL (≈ 0.276 µM)		MIC [15]: 0.5 µg/mL (≈ 0.276 µM)
